The data set in a line: Meloxicam solubility enhancement test of sodium methoxide (saturation, HPLC). How it is done: Meloxicam was mixed with an equivalent amount of sodium methoxide, and the mixture was dissolved to the saturation point in distilled water, methanol, ethylacetate, tetrahydrofuran or N-methylpyrrolidone. The resulting solution was subjected to high performance liquid chromatography to measure the meloxicam solubility.
Only Meloxicam without using sodium methoxide was dissolved to the saturation point in distilled water, methanol, ethylacetate, tetrahydrofuran or N-methylpyrrolidone, and then the resulting solution was subjected to high performance liquid chromatography to measure the meloxica solubility.

Where two headings read alike, the source gives them in different places.

As to `Cc1cnc(NC(=O)C2=C(O)c3ccccc3S(=O)(=O)N2C)s1` [Comparative Example 1, Meloxicam], the Meloxicam solubility came to 60 µg/mL.
The same measure, in the same setting: as for `Cc1cnc(NC(=O)C2=C(O)c3ccccc3S(=O)(=O)N2C)s1` [Comparative Example 2, Meloxicam], the figure is 430 µg/mL.
With `Cc1cnc(NC(=O)C2=C(O)c3ccccc3S(=O)(=O)N2C)s1` [Comparative Example 3, Meloxicam], the Meloxicam solubility (saturation, HPLC) is 1280 µg/mL.
As for `Cc1cnc(NC(=O)C2=C(O)c3ccccc3S(=O)(=O)N2C)s1` [Comparative Example 4, Meloxicam], the Meloxicam solubility was found to be 21910 µg/mL.
For `Cc1cnc(NC(=O)C2=C(O)c3ccccc3S(=O)(=O)N2C)s1` [Comparative Example 5, Meloxicam], the Meloxicam solubility was determined as 92700 µg/mL.

The record behind these values is patent US20090117192A1, “COMPOSITION FOR TRANSDERMAL ABSORPTION AND FORMULATION COMPRISING A POLYMERIC MATRIX FORMED THEREFROM” (priority 2007, published 2009).
